These results are taken from US20160361257A1, “COMPOSITION FOR INCREASING TESTOSTERONE LEVELS AND ENHANCING LIBIDO” (priority 2015, published 2016).

Data set [1] in a line: half-life when delivered sublingually or transmucosally. To be noted: in vivo. The method, then: 7-methoxyflavone is an aromatase inhibitor. Aromatase inhibitors work by inhibiting the action of the enzyme aromatase, which converts androgens into estrogens by a process called aromatization. 7-methoxyflavone is a compound having poor bioavailability of about 5% when ingested. According to an embodiment of the present invention, from about 5 mg to 50 mg, and preferably from about 20 mg to 30 mg of 7-methoxyflavone may be included in the formulations and dosage forms of the present invention, when delivered sublingually or transmucosally. […] According to an embodiment, the 7-methoxyflavone may be from a plant extract. 7-methoxyflavone has been found in Meliaceae and Rutaceae plants. According to an embodiment, the 7-methoxyflavone may therefore be from an extract containing at least 90% 7-methoxyflavone, standardized. Preferably, extract contains at least […] 7-methoxyflavone, standardized.
According to an embodiment of the present invention, from about 5 mg to 50 mg, and preferably from about 20 mg to 30 mg of 7,8-benzoflavone may be included in the formulations and dosage forms of the present invention, when delivered sublingually or transmucosally. According to an embodiment, the half-life of 7,8-benzoflavone is about 1-2h when delivered sublingually or transmucosally.

The conditions of data set [2]: humans; prior art U.S. Pat. No. 5,880,117; cited from earlier work.

On to `COc1ccc2c(=O)cc(-c3ccccc3)oc2c1` [7-methoxyflavone], for which the half-life (usually the time needed for the level to fall by half in the phase considered) in data set [1] is 8 to 12 h. Consider `O=c1cc(-c2ccccc2)oc2c1ccc1ccccc12` [7,8-benzoflavone, 2-phenyl-benzo(h)chromen-4-one], for which, in data set [1], the half-life was in the range of 1 to 2 h. In the case of `C[C@]12CC[C@H]3[C@@H](CCC4=C[C@@H](O)CC[C@@]43C)[C@@H]1CC[C@@H]2O` [4-androstene-3β, 17β-diol], in data set [2], the “period over which concentration declines after the peak” value was 3 to 4 h and the “time to peak concentration after administration” value was at most 90 min.
